Laboratory results published in ChEMBL document CHEMBL1151612, “Potential anticancer agents XXXII. Hydroquinone from Ipomopsis aggregata” (1984).
In brackets after ≈: the same amount, converted by molar mass.

Legend:
P388 = assay: Cytotoxicity against mouse P388 cells; conditions: P388, read-out: ED50
KB = assay: Cytotoxicity against human KB cells; conditions: read-out: ED50

## Oc1ccc(O)cc1 [HYDROQUINONE]
P388
  EC50: 2.2 µg/mL (≈ 20 µM)
KB
  EC50: 3.8 µg/mL (≈ 34.5 µM)
